Assay results as given in publication PMC6681416, “Novel Derivatives of Deoxycholic Acid Bearing Linear Aliphatic Diamine and Aminoalcohol Moieties and their Cyclic Analogs at the C3 Position: Synthesis and Evaluation of Their In Vitro Antitumor Potential” (Molecules, 2019).

Key:
HuTu-80 cells = test: Mitochondrial membrane potential (JC-1); format: cell-based, human; conditions: 8 µM, control 18.7%
Experimental: Next, in order to identify whether the compound 9 induces apoptotic cell death by triggering mitochondrial dysfunction, we analyzed its effect on mitochondrial membrane potential (Δψm) in HuTu-80 cells by using fluorescent cationic JC-1 dye (Figure 2B).
The mitochondrial-specific cationic dye JC-1 (Molecular Probes, Invitrogen, Carlsbad, CA, USA) accumulating in the mitochondria by potential-dependent manner was used to detect the effect of compound 9 on ∆ψM. Briefly, HuTu-80 cells were seeded in 6-well plates at a density of 5 × 10^5 cells/well for 24 h. Then cells were treated by compound 9 at 8 µM for 6, 18 or 24 h, collected by trypsinization, washed with PBS, and JC-1 (5 µg/mL) was added to the cells. After 30 min of incubation at 37 °C, the cells were centrifuged, washed with PBS and analyzed using NovoCyte Flow Cytometer (ACEA Biosciences Inc.).

[1] = system: NO synthesis by IFNγ-activated RAW264.7 cells; test: Inhibition of NO production by stimulated macrophages (Griess); format: cell-based, murine; conditions: Mus musculus, RAW264.7, 24 h, read-out: IC50NO
Experimental: RAW264.7 cells were seeded in triplicate in 96-well plates at a density of 5 × 10^4 cells/well and incubated under standard conditions for 24 h. The cells were treated with 20 ng/mL of murine recombinant IFNγ (GIBCO, Gaithersburg, MD, USA), with or without (control) compounds at various concentrations for 24 h. The level of NO production was evaluated by determining the nitrite concentration in culture medium with a Griess Reagent System (Promega, Madison, WI, USA). The IC50^NO value was calculated as the derivative concentration required to decrease NO production to 50% of the non-treated control.

[2] = system: caspase-3/7 in HuTu-80 cells; test: Caspase-3/-7 activity (Caspase-Glo 3/7); format: cell-based, human; conditions: 8 µM, 18 h and 24 h time points
Experimental: In the next step of the study our attention was focused on understanding the ability of compound 9 to activate caspases—a family of cysteine proteases, being critical mediators of apoptosis. In order to perform this, we evaluated the effect of compound 9 on activity of key executioner caspases-3 and -7 responsible for proteolytic cleavage of many proteins in the culminating step of cell death.
The caspase-3/-7 activity in HuTu-80 cells was assessed by using Caspase-Glo® 3/7 Assay kit (Promega, Madison, WI, USA) according to the manufacturer’s instructions. Briefly, the cells were seeded in white-walled 96-well plates at a density of 10^4 cells/well for 24. After incubation, cells were treated with compound 9 at 8 µM for 6, 18 or 24 h and then 100 µL of Caspase-Glo® 3/7 reagent was added to each well. The plate was carefully shaken for 30 sec on a plate mixer and afterwards incubated for 30 min at room temperature in the dark. The luminescence was detected using CLARIOstar plate reader (BMG Labtech, Ortenberg, Germany).

A549 cells = test: MTT cytotoxicity assay, A549; format: cell-based, human
Excerpt: According to our previous data and data published by other research groups, chemical transformations of bile acids can greatly improve their antitumor potential. Thus, as the first step of evaluation of the biological activities of our novel DCA derivatives we assessed their effects on tumor cell viability. The cytotoxicity of the compounds was investigated with respect to a panel of cultured cell lines, including human duodenal HuTu-80, hepatocellular HepG2, cervical KB-3-1 and lung A549 carcinomas as well as murine macrophage RAW264.7 and non-transformed human fibroblasts hFF3 by MTT assay.
Human duodenal carcinoma HuTu-80 cells, human hepatocellular carcinoma HepG2 cells, human cervical carcinoma KB-3-1 cells, human lung carcinoma A549 cells were obtained from the Russian Cell Culture Collection (Institute of Cytology, RAS, St. Petersburg, Russia). Non-transformed human fibroblasts hFF3 were kindly provided by Dr. Olga Koval (Institute of Chemical Biology and Fundamental Medicine, SB RAS, Novosibirsk, Russia). RAW264.7 macrophages were kindly provided by Prof. Dr. Dmitry Kuprash (Engelhardt Institute of Molecular Biology, RAS, Moscow, Russia). The cells were cultured in DMEM (Sigma-Aldrich Inc., St. Louis, MO, USA) supplemented with 10% (v/v) heat-inactivated fetal bovine serum (FBS) (BioloT, St. Petersburg, Russia), 100 U/mL penicillin (ICN Biomedicals Inc., Costa Mesa, CA, USA), 100 µg/mL streptomycin and 0.25 µg/mL amphotericin; additionally, in the case of RAW264.7 cells, concentration of glucose in the medium was increased up to 4.5 mg/mL. The cells were incubated at 37 °C in 5% CO2 and 95% air (hereafter referred to as standard conditions). DCA derivatives were dissolved in DMSO to yield stock solutions of 10 mmol/L and stored at −20 °C prior to use.
Cells were seeded in triplicate in 96-well plates at a density of 5 × 10^3 (HuTu-80, HepG2, KB-3-1, hFF3), 10^4 (A549) or 5 × 10^4 (RAW264.7) cells per well. Cells were incubated under standard conditions for 24 h and then they were treated with varying doses of investigated derivatives for subsequent 24 h. Then 10 µL of MTT solution (5 mg/mL) were added to each wells and cells were incubated for an additional 2 h under standard conditions. The crystals of formazan forming within live cells were solubilized with DMSO and the absorbance was measured in a Multiscan RC plate reader (Thermo LabSystems, Helsinki, Finland) at a test and reference wavelengths of 570 nm and 620 nm, respectively. […] To perform SAR analysis, hierarchical clustering of compounds based on their IC50 values was fulfilled with Euclidean distance by using the Morpheus tool (https://software.broadinstitute.org/morpheus/), a platform designed for visualization and analysis of data in a matrix format. Heatmap, containing compounds’ SI values, were constructed by using the Excel 2010 software (Microsoft, Redmond, WA, USA). In order to reveal whether ROS participate in the induction of cell death by compound 9, HuTu-80 cells cultured in 96-well plate were pretreated by NAC at 2 mM for 1 h. Thereafter, the medium was replaced by fresh medium with compound 9 at 8 µM and the cells were incubated with subsequent 24 h under standard conditions. After this time period, the curves of cytotoxicity of compound 9 in the presence or absence of NAC were compared.

**Q.** Which “cells with collapsed membrane potential (Low MMP)” value (“cells” for short) (HuTu-80 cells; 6 h) does the source give for `COC(=O)CC[C@@H](C)[C@H]1CC[C@H]2[C@@H]3CC[C@@H]4CC(O)(CNCCCO)CC[C@]4(C)[C@H]3CC(=O)[C@]12C` (stereo partly drawn) [Compound 9, Methyl 3-hydroxy-3-((3-hydroxypropylamino)methyl)-12-oxo-5β-cholan-24-oate] here?
**A.** 38.2%

**Q.** What about the “cells” value (HuTu-80 cells; 18 h) of the same molecule?
**A.** 68.6%

**Q.** And the “cells” value (HuTu-80 cells; 24 h)?
**A.** 78.8%

**Q.** And the IC50 [1]?
**A.** > 10 µM

**Q.** What about the caspase-3/7 activity [2] of the same molecule?
**A.** significantly increased

**Q.** What about the IC50 (A549 cells; Homo sapiens, A549, MTT, 24 h, read-out: IC50 A549 (lung)) of the same molecule?
**A.** 29 ± 3.5 µM

**Q.** And the “Selectivity index A549” value (A549 cells; ratio IC50 hFF3 / IC50 A549)?
**A.** 1.1
